{"source": "patent US20220098320A1", "about": "“SENOLYTIC CAR-T CELLS TARGETING UPAR, A CELL SURFACE AND SECRETED […]” (MEMORIAL SLOAN KETTERING CANCER CENTER, priority 2019, published 2022)", "key": {"suPAR [1]": {"test_system": "suPAR", "assay": "CCl4-induced liver fibrosis: plasma suPAR", "type": "in vivo", "details": "CCl4-treated mice vs untreated controls; FIGS. 5B and 16D", "description": "In vivo induction of liver fibrosis. C57BL/6J mice were treated twice a week with 12 consecutive intraperitoneal (i.p.) injections of 1 ml/kg carbon tetrachloride (CCl4) to induce liver fibrosis. For murine CAR T cell studies, cyclophosphamide (200 mg/kg) was administered 24 hours before T cell injection. Mice received 3×10^6 CAR^+ T cells or untransduced T cells and CCl4 was continuously administered at the same dose and interval after T cell injection until day 20 post CAR injection. Animals were sacrificed 48-72 h after the last CCl4 injection. NSG mice were treated twice a week with 8 consecutive i.p. injections of 1 ml/kg CCl4 to induce liver fibrosis. For human CAR T cell studies, mice received 0.5×10^6 CAR T cells or untransduced T cells and CCl4 was continued once a week after CAR T injection until day 10 post CAR administration, when animals were sacrificed 48-72 h after the last CCl4 injection. Venous blood was collected by facial vein puncture.\n(§1) Detection of suPAR levels. suPAR levels from cell culture supernatant of murine plasma were evaluated by enzyme-linked immunosorbent assay (ELISA) according to the manufacturer's protocol (R&D systems, DY531 (mouse) or DY807 (human))."}, "suPAR [2]": {"test_system": "suPAR", "assay": "doxorubicin-induced senescence in vivo: plasma suPAR by ELISA", "design": "species or system C57BL/6J mice", "details": "doxorubicin i.p. day 0 and day 10; blood at days 10 and 20; FIG. 7D", "experimental": "In vivo induction of doxorubicin-Induced senescence. […] Venous blood was collected by facial vein puncture at days 10 and 20 after initial doxorubicin administration. Detection of suPAR levels. suPAR levels from cell culture supernatant of murine plasma were evaluated by enzyme-linked immunosorbent assay (ELISA) according to the manufacturer's protocol (R&D systems, DY531 (mouse) or DY807 (human))."}, "suPAR [3]": {"test_system": "suPAR", "assay": "bleomycin-induced lung fibrosis: plasma suPAR", "type": "in vivo, NSG mice", "details": "intratracheal bleomycin; FIGS. 9C-9E", "description": "as §1"}}, "data": [{"molecule": "ClC(Cl)(Cl)Cl", "note": "[CCl4, carbon tetrachloride]", "values": [{"measurement": "plasma suPAR levels", "setting": "suPAR [1]", "result": "elevation of plasma suPAR levels relative to untreated controls"}]}, {"molecule": "COc1cccc2c1C(=O)c1c(O)c3c(c(O)c1C2=O)C[C@@](O)(C(=O)CO)C[C@@H]3O[C@H]1C[C@H](N)[C@H](O)[C@H](C)O1", "note": "[doxorubicin]", "values": [{"measurement": "plasma levels of suPAR", "setting": "suPAR [2]", "result": "time-dependent and dose-dependent correlation with the plasma levels of suPAR"}]}, {"molecule": "bleomycin", "values": [{"measurement": "plasma levels of suPAR", "setting": "suPAR [3]", "result": "Higher levels of suPAR"}]}]}
